The text below walks through data of PubChem BioAssay AID256 (DTP/NCI, 2004).

Several values for one entry are separate records, joined by “and”; a condition that tells them apart may be missing. Identical values can stand only once. Inconclusive results and toxic doses are left out.

The assay has as its system CD2F1 mice, L1210 leukemia ip, survival T/C. In words: NCI In Vivo Anticancer Drug Screen. Data for tumor model L1210 Leukemia (intraperitoneal) in CD2F1 (CDF1) mice. Particulars: higher = longer survival. The method in brief: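 Mice carrying a transplanted tumor received test compound or vehicle alone. The value is the measurement in the treated group divided by that in the vehicle-treated control group.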

The mark [1] stands for this setting: endpoint: mean survival time, dose: 12.5 mg/kg/injection, schedule: Q01DX009 (ip), vehicle: saline with Tween-80.
[2] abbreviates: endpoint: mean survival time, dose: 25.0 mg/kg/injection, schedule: Q01DX009 (ip), vehicle: saline with Tween-80.
Setting [3] is: endpoint: mean survival time, dose: 50.0 mg/kg/injection, schedule: Q01DX009 (ip), vehicle: saline with Tween-80.
Setting [4] is: endpoint: mean survival time, dose: 100.0 mg/kg/injection, schedule: Q01DX009 (ip), vehicle: saline with Tween-80.
[5] abbreviates: endpoint: mean survival time, dose: 200.0 mg/kg/injection, schedule: Q01DX009 (ip), vehicle: saline with Tween-80.
Where [6] appears, read: endpoint: mean survival time, dose: 400.0 mg/kg/injection, schedule: Q01DX009 (ip), vehicle: saline with Tween-80.
Where [7] appears, read: endpoint: mean survival time, dose: 100.0 mg/kg/injection, schedule: Q01DX001 (ip), vehicle: saline with Tween-80.
[8] abbreviates: endpoint: mean survival time, dose: 200.0 mg/kg/injection, schedule: Q01DX001 (ip), vehicle: saline with Tween-80.
[9] abbreviates: endpoint: mean survival time, dose: 400.0 mg/kg/injection, schedule: Q01DX001 (ip), vehicle: saline with Tween-80.

As to `CN=C(N)N/N=C(\C)c1ccc2c(c1)Cc1ccccc1-2`, the T/C under setting [1] is 102 % of control; the T/C under setting [2] is 105 % of control; the T/C under setting [3] was 108 % of control; the T/C under setting [4] was 97 % of control; the T/C under setting [5] is 91 % of control; the T/C (endpoint: median survival time, dose: 12.5 mg/kg/injection, schedule: Q01DX009 (ip), vehicle: saline with Tween-80) was 101 % of control. The T/C was 106 % of control (endpoint: median survival time, dose: 25.0 mg/kg/injection, schedule: Q01DX009 (ip), vehicle: saline with Tween-80); 103 % of control (endpoint: median survival time, dose: 50.0 mg/kg/injection, schedule: Q01DX009 (ip), vehicle: saline with Tween-80); 101 % of control (endpoint: median survival time, dose: 100.0 mg/kg/injection, schedule: Q01DX009 (ip), vehicle: saline with Tween-80); 106 % of control (endpoint: median survival time, dose: 200.0 mg/kg/injection, schedule: Q01DX009 (ip), vehicle: saline with Tween-80).
Turning to `C(C#CCN1CCOCC1)#CCN1CCOCC1`, the T/C runs as follows: (endpoint: mean survival time, dose: 6.25 mg/kg/injection, schedule: Q01DX009 (ip), vehicle: Klucel (hydroxypropylcellulose) (HPC)) 96 % of control; (endpoint: mean survival time, dose: 12.5 mg/kg/injection, schedule: Q01DX009 (ip), vehicle: Klucel (hydroxypropylcellulose) (HPC)) 91 % of control; under setting [1], 95 % of control and 101 % of control; (endpoint: mean survival time, dose: 25.0 mg/kg/injection, schedule: Q01DX009 (ip), vehicle: Klucel (hydroxypropylcellulose) (HPC)) 100 % of control; under setting [2], 95 % of control and 98 % of control; (endpoint: mean survival time, dose: 50.0 mg/kg/injection, schedule: Q01DX009 (ip), vehicle: Klucel (hydroxypropylcellulose) (HPC)) 105 % of control. For the same molecule, the T/C by setting is: under setting [3], 93 % of control and 95 % of control; (endpoint: mean survival time, dose: 100.0 mg/kg/injection, schedule: Q01DX009 (ip), vehicle: Klucel (hydroxypropylcellulose) (HPC)) 100 % of control; under setting [4], 88 % of control and 90 % of control and 96 % of control; (endpoint: mean survival time, dose: 100.0 mg/kg/injection, schedule: Q04DX003 (ip), vehicle: saline with Tween-80) 102 % of control; (endpoint: mean survival time, dose: 200.0 mg/kg/injection, schedule: Q01DX009 (ip), vehicle: Klucel (hydroxypropylcellulose) (HPC)) 91 % of control; under setting [5], 95 % of control (2×) and 96 % of control. Besides, the T/C is 96 % of control (endpoint: mean survival time, dose: 200.0 mg/kg/injection, schedule: Q04DX003 (ip), vehicle: saline with Tween-80); 97 % of control (endpoint: mean survival time, dose: 400.0 mg/kg/injection, schedule: Q01DX009 (ip), vehicle: Klucel (hydroxypropylcellulose) (HPC)); 95 % of control and 100 % of control and 101 % of control under setting [6]; 102 % of control (endpoint: mean survival time, dose: 400.0 mg/kg/injection, schedule: Q04DX003 (ip), vehicle: saline with Tween-80).
In the case of `CCC1=[N+]([O-])[N+]([O-])=C(c2ccccc2)C1=O`, the T/C (endpoint: mean survival time, dose: 50.0 mg/kg/injection, schedule: Q01DX009 (ip), vehicle: other) was 93 % of control; the T/C (endpoint: mean survival time, dose: 100.0 mg/kg/injection, schedule: Q01DX009 (ip), vehicle: other) is 101 % of control; the T/C (endpoint: mean survival time, dose: 200.0 mg/kg/injection, schedule: Q01DX009 (ip), vehicle: other) is 93 % of control.
In the case of `Cc1cccc(C)c1N=C(c1ccccc1)N(O)c1ccccc1`, the T/C reads like this: (endpoint: mean survival time, dose: 1.88 mg/kg/injection, schedule: Q01DX009 (ip), vehicle: saline with Tween-80) 101 % of control; (endpoint: mean survival time, dose: 1.88 mg/kg/injection, schedule: Q04DX003 (ip), vehicle: saline) 93 % of control; (endpoint: mean survival time, dose: 3.75 mg/kg/injection, schedule: Q01DX009 (ip), vehicle: saline with Tween-80) 95 % of control; (endpoint: mean survival time, dose: 3.75 mg/kg/injection, schedule: Q04DX003 (ip), vehicle: saline) 96 % of control; (endpoint: mean survival time, dose: 7.5 mg/kg/injection, schedule: Q01DX001 (ip), vehicle: saline) 103 % of control; (endpoint: mean survival time, dose: 7.5 mg/kg/injection, schedule: Q01DX009 (ip), vehicle: saline with Tween-80) 98 % of control. Also, for the setting “endpoint: mean survival time, dose: 7.5 mg/kg/injection, schedule: Q04DX003 (ip), vehicle: saline”, the T/C is 98 % of control.
For `O=[N+]([O-])c1ccc2[nH]ncc2c1`, the T/C under setting [7] was 103 % of control, the T/C under setting [8] was 92 % of control and the T/C under setting [9] is 100 % of control.
As to `COc1ccccc1NC(=O)N(CCCl)N=O`, the T/C was 115 % of control (endpoint: mean survival time, dose: 1.5 mg/kg/injection, schedule: Q01DX009 (ip), vehicle: carboxymethylcellulose (CMC)) and 168 % of control (endpoint: mean survival time, dose: 3.5 mg/kg/injection, schedule: Q01DX009 (ip), vehicle: carboxymethylcellulose (CMC)).
For `CC(=O)[O][Hg][c]1ccccc1`, the T/C was 100 % of control (endpoint: mean survival time, dose: 12.5 mg/kg/injection, schedule: Q01DX001 (ip), vehicle: Klucel (hydroxypropylcellulose) (HPC)); 106 % of control under setting [1]; 106 % of control (endpoint: mean survival time, dose: 25.0 mg/kg/injection, schedule: Q01DX001 (ip), vehicle: Klucel (hydroxypropylcellulose) (HPC)); 98 % of control under setting [2].
Turning to `COc1ccc(OC)c(NC(=S)NC(=O)COc2ccccc2)c1`, the T/C under setting [7] was 87 % of control; the T/C under setting [4] is 94 % of control and 97 % of control; the T/C (endpoint: mean survival time, dose: 100.0 mg/kg/injection, schedule: Q04DX002 (ip), vehicle: saline with Tween-80) was 98 % of control; the T/C under setting [8] is 87 % of control; the T/C under setting [5] is 88 % of control and 93 % of control; the T/C (endpoint: mean survival time, dose: 200.0 mg/kg/injection, schedule: Q04DX002 (ip), vehicle: saline with Tween-80) was 102 % of control. Moreover, the T/C is 89 % of control under setting [9]; 102 % of control and 104 % of control under setting [6]; 109 % of control (endpoint: mean survival time, dose: 400.0 mg/kg/injection, schedule: Q04DX002 (ip), vehicle: saline with Tween-80).
Regarding `CC(C)(CCC(=O)O)c1ccc(O)cc1`, the T/C (endpoint: mean survival time, dose: 100.0 mg/kg/injection, schedule: Q04DX003 (ip), vehicle: saline) was 101 % of control; the T/C (endpoint: mean survival time, dose: 200.0 mg/kg/injection, schedule: Q04DX003 (ip), vehicle: saline) is 103 % of control; the T/C (endpoint: mean survival time, dose: 400.0 mg/kg/injection, schedule: Q04DX003 (ip), vehicle: saline) was 103 % of control.
With `CC(NC(=O)c1ccc(Cl)cc1Cl)c1ccccc1` (stereo not given), the T/C is, setting by setting: (endpoint: mean survival time, dose: 75.0 mg/kg/injection, schedule: Q04DX003 (ip), vehicle: saline with Tween-80) 101 % of control; (endpoint: mean survival time, dose: 150.0 mg/kg/injection, schedule: Q04DX003 (ip), vehicle: saline with Tween-80) 101 % of control; (endpoint: mean survival time, dose: 300.0 mg/kg/injection, schedule: Q04DX003 (ip), vehicle: saline with Tween-80) 101 % of control.
